Laboratory results: patent US11484608B2, “Non-invasive assessment of hepatic mitochondrial metabolism by positional isotopomer NMR tracer analysis (PINTA)” (YALE UNIVERSITY, priority 2017, dated 2022)

Experiments:
[1] = system: hepatic mitochondrial oxidation, NAFLD, glucose tolerance; experiment: Chronic 10-day glucagon infusion in high fat fed rats; assay type: in vivo, rat
Method: During week 3 of the diet, rats underwent surgery under isoflurane anesthesia to place catheters in the jugular vein and carotid artery, and recovery was confirmed by regaining the pre-surgical body weight prior to in vivo studies. […] Rats were fasted for 8 hr prior to sacrifice with IV pentobarbital.
In the rat studies, blood was collected from the jugular venous catheter. In both species, samples were immediately centrifuged (12,000 rpm) to separate plasma from red blood cells. PINTA analysis of hepatic mitochondrial fluxes was employed in both rats and mice (see Example 1). Briefly, mice were infused with a two-hour primed (5 min, 3×)-continuous infusion of [3-^13C] lactate (40 μmol kg^−1 min^−1) and [1,2,3,4,5,6,6-^2H7] glucose (0.1 mg kg^−1 min^−1). Rats were infused with lactate at the same rate, as well as [3-^3H] glucose (0.1 mCi kg^−1 min^−1). At the conclusion of the study, animals were euthanized with IV pentobarbital.
(§1) In the glucose tolerance tests, rodents were injected with 1 g kg^−1 50% dextrose (rats) or 10% dextrose (mice) intraperitoneally. Blood samples were taken through the venous catheter (rats) or by tail bleeding (mice) for measurement of plasma glucose and insulin concentrations as described below (Biochemical analysis).
Plasma glucose concentrations were measured using a YSI Glucose Analyzer. […] Plasma NEFA concentrations were measured using the Wako NEFA assay, while plasma glycerol and plasma and liver amino acid concentrations were measured by GC/MS. […] Protein concentrations were measured by Western blot, using antibodies from Santa Cruz (PC, PEPCK, CAMKII), Cell Signaling (ATGL, pCAMKIV, CAMKIV, pCRTC2, CRTC2, pACC, ACC, pAMPK, AMPK, pHSL, HSL, GAPDH, and β-actin), Novus Biologicals (pCAMKII), Abcam (pATGL), LSBio (pInsP3R-I), and BD Transduction Laboratories (InsP3R-II, InsP3R-III, PKCε). The antibody to pATGL was kindly provided by Dr. Hei Sook Sul, while the antibody to total InsP3R-I was custom-made using an epitope against the last 18 amino acids of InsP3R-I. Gluconeogenic gene mRNA expression was measured by qPCR^45 using primers sequences as follows: […]

[2] = system: NAFLD and glucose tolerance (InsP3R-I dependent); experiment: Chronic 3.5 week glucagon infusion in high fat fed WT and InsP3R-I KO mice; assay type: in vivo, mouse
Method: They underwent CLAMS metabolic cage analysis to assess energetics and food and water intake during the second week of glucagon infusion. […] 48 hr later, after a 6 hr fast, they were sacrificed under isoflurane anesthesia for measurement of hepatic lipid content as described below.
as §1
Plasma glucose concentrations were measured using a YSI Glucose Analyzer. […] Plasma NEFA concentrations were measured using the Wako NEFA assay, while plasma glycerol and plasma and liver amino acid concentrations were measured by GC/MS. Liver acetyl- and malonyl-CoA (standard curve R^2=0.999 and 0.999), long-chain CoA, DAG, and ceramide concentrations were measured by LC-MS/MS, hepatic glycogen content following amyloglucosidase digestion, and TAG concentrations enzymatically. cAMP concentrations were measured using the Enzo Life Sciences Direct cAMP ELISA. Protein concentrations were measured by Western blot, using antibodies from Santa Cruz (PC, PEPCK, CAMKII), Cell Signaling (ATGL, pCAMKIV, CAMKIV, pCRTC2, CRTC2, pACC, ACC, pAMPK, AMPK, pHSL, HSL, GAPDH, and β-actin), Novus Biologicals (pCAMKII), Abcam (pATGL), LSBio (pInsP3R-I), and BD Transduction Laboratories (InsP3R-II, InsP3R-III, PKCε). The antibody to pATGL was kindly provided by Dr. Hei Sook Sul, while the antibody to total InsP3R-I was custom-made using an epitope against the last 18 amino acids of InsP3R-I. Gluconeogenic gene mRNA expression was measured by qPCR^45 using primers sequences as follows: […]

[3] = HFD rats, two hours after withdrawal of glucagon infusion
[4] = intraperitoneal glucose tolerance test, HFD rats
[5] = rat liver, chronic glucagon infusion
[6] = rats, chronic glucagon infusion

glucagon
food intake, body weight, and hepatic ceramide content ([1]; HFD rats, chronic glucagon): similar
hepatic VPK flux ([1]; HFD rats, chronic glucagon): did not change
hepatic VPK flux as proportion of hepatic VPC flux ([1]; HFD rats, chronic glucagon): 15-20%
liver glycogen content ([1]; HFD rats, chronic glucagon): reductions
protein kinase C-epsilon (PKCε) translocation ([1]; HFD rats, chronic glucagon): marked reductions
reductions in hepatic triglyceride and diacylglycerol concentrations ([1]; HFD rats, chronic glucagon): 50-90%
hepatic acetyl- and malonyl-CoA content ([1]; HFD rats, glucagon withdrawn four hours before sacrifice): suppression
increase in rates of hepatic mitochondrial oxidation ([1]; HFD rats, ten days glucagon 5 ng kg^−1 min^−1): two-fold
reductions in fasting plasma glucose [1, 3]: 1.4 mM
reductions in fasting plasma insulin concentrations [1, 3]: 50%
reduction in glucose area under the curve [1, 4]: 20%
reduction in insulin area under the curve [1, 4]: 60%
Cytosolic DAG C16, C16 [1, 5]: 1.8 ± 0.2 nmol/g
Cytosolic DAG C16, C18_2 [1, 5]: 7.2 ± 1.0 nmol/g
Cytosolic DAG C16 C20_4 [1, 5]: 0.5 ± 0.1 nmol/g
Cytosolic DAG C18, C16 [1, 5]: 1.7 ± 0.1 nmol/g
Cytosolic DAG C18, C18 [1, 5]: 5.6 ± 0.6 nmol/g
Cytosolic DAG C18 C20_4 [1, 5]: 13.6 ± 1.1 nmol/g
Cytosolic DAG C18_1, C18 [1, 5]: 0.6 ± 0.1 nmol/g
Cytosolic DAG C18_1, C18_1 [1, 5]: 4.2 ± 0.5 nmol/g
Cytosolic DAG C18_1, C18_2 [1, 5]: 4.0 ± 0.5 nmol/g
Cytosolic DAG C18_1 C16 [1, 5]: 5.3 ± 0.9 nmol/g
Cytosolic DAG C18_2, C18 [1, 5]: 0.9 ± 0.1 nmol/g
Cytosolic DAG C18_2, C18_2 [1, 5]: 3.6 ± 0.6 nmol/g
Cytosolic DAG C20_4 C20_5 [1, 5]: 0.5 ± 0.1 nmol/g
Cytosolic DAG Total DAG [1, 5]: 38.3 ± 3.1 nmol/g
Membrane DAG C16, C16 [1, 5]: 10.2 ± 2.6 nmol/g
Membrane DAG C16, C18_2 [1, 5]: 97.3 ± 13.4 nmol/g
Membrane DAG C16 C20_4 [1, 5]: 4.2 ± 0.7 nmol/g
Membrane DAG C18, C16 [1, 5]: 4.9 ± 0.5 nmol/g
Membrane DAG C18, C18 [1, 5]: 6.5 ± 0.5 nmol/g
Membrane DAG C18 C20_4 [1, 5]: 21.5 ± 2.4 nmol/g
Membrane DAG C18_1, C18 [1, 5]: 3.6 ± 0.4 nmol/g
Membrane DAG C18_1, C18_1 [1, 5]: 44.1 ± 7.2 nmol/g
Membrane DAG C18_1, C18_2 [1, 5]: 58.7 ± 7.8 nmol/g
Membrane DAG C18_1 C16 [1, 5]: 50.0 ± 9.0 nmol/g
Membrane DAG C18_2, C18 [1, 5]: 7.8 ± 0.7 nmol/g
Membrane DAG C18_2, C18_2 [1, 5]: 44.0 ± 10.7 nmol/g
Membrane DAG Total DAG [1, 5]: 364.0 ± 44.7 nmol/g
Ceramide C16 [1, 6]: 40.1 ± 10.2 nmol/g
Ceramide C18 [1, 6]: 7.1 ± 1.4 nmol/g
Ceramide C20 [1, 6]: 15.9 ± 3.7 nmol/g
Ceramide C22 [1, 6]: 26.9 ± 5.2 nmol/g
Ceramide C24 [1, 6]: 52.8 ± 10.9 nmol/g
Ceramide C24:1 [1, 6]: 15.2 ± 3.9 nmol/g
Total ceramide [1, 6]: 158.0 ± 33.4 nmol/g
increases in hepatic mitochondrial fat oxidation (VFAO) ([1]; short-term continuous glucagon treatment): two-fold
hepatic lipid content or glucose tolerance ([2]; diet-induced obese InsP3R-I KO mice): did not manifest any alterations
body weight, food and water intake, activity and energy expenditure ([2]; diet-induced obese WT mice): unchanged
glucose tolerance ([2]; diet-induced obese WT mice): marked improvement
hepatic ceramide concentrations ([2]; diet-induced obese WT mice): without any alterations
reductions in liver triglyceride and diacylglycerol content and PKCε translocation ([2]; diet-induced obese WT mice, four-week continuous glucagon infusion): 50-80%
